Measured values published in US10406236B2, “Single wall nanotube constructs and uses thereof” (Sloan-Kettering Institute for Cancer Research, priority 2005, dated 2019).

Legend:
serum antibodies = assay: Competition study of serum antibodies to SWNT; format: binding, Balb/c mice; conditions: high concentrations (>0.1 mg/ml)
CD8+ T cells = assay: WT-1 peptide specific CTL responses in vivo (ELISPOT); conditions: mouse
Method: Mouse footpads of C57BL/6 or BALB/c, depending on the peptide specificity, are injected with the various OVA constructs in the presence or absence of adjuvant (Titermax, Sigma) along with appropriate control groups. Serum from immunized animals is obtained via retro-orbital bleeding and assayed for SWNT specific Abs using the ELISA protocol described above.
HA-Multiscreen plates were coated with rat-anti-mouse IFN-g antibody (MabTech). CD8+ T cells isolated and purified from the paplitial lymph nodes of immunized animals are plated, and APCs from a non-immunized mouse are isolated, irradiated, pulsed with peptides, and added to the CD8+ T cells at an E:T ratio of 1:4. The cellular mixture is incubated overnight at 37° C. and the plates were developed the next day using an antibody against rat IgG. Spots were counted using a computer assisted video image analyzer with KS ELISPOT 4.0 software (Carol Zeiss Vision, Germany).
A few of these peptides were screened for their ability to elicit WT-1 peptide specific CTL responses in vivo using the methods described above.

tumor expressing cells = conditions: previous reports; cited from earlier work
peptide pulsed APCs = assay: ^51Cr cytotoxicity assay; format: cell-based, mouse; conditions: E:T ratios 1:60-1:7, 4 hours
Method: To detect the cytotoxic nature of the activated CD8+ T cells peptide specific CD8+ cells and irradiated peptide pulsed APCs were prepared as described above. The peptide sensitized APCs were labeled with 100 μCi of ^51Cr and incubated together with the CD8+ cells at E:T ratios varying from 1:60-1:7. After incubation together for 4 hours, supernatants were harvested and measured in a gamma counter.

GFP1/FFLuc1 Daudi tumor = assay: Biodistribution and tumor targeting in disseminated lymphoma model; format: in vivo; conditions: 24 h after i.v. injection, tumor-bearing scid mice
Method: The specific SWNT-rituximab-^111In*DOTA construct or control SWNT-HuM195-^111In*DOTA (Lintuzumab) construct was prepared by adding 111-185 MBq of acidic 111In chloride to 0.50 mg of SWNT-rituximab-DOTA or SWNT-HuM195-DOTA (50 g/L) in MFW and 0.050 mL of 3 M ammonium acetate to yield a pH 5.5 solution. The reaction mixture was maintained at ambient temperature for 30 min and then purified using a 10DG column with 1% HSA/0.9% NaCl. The radiochemical purity of SWNT-rituximab-DOTA or SWNT-HuM195-DOTA was 95% and the radiolabeled Rituximab was 98% as determined by the ITLC-SG methods described herein.
The biodistribution and tumor targeting specificity of SWNT-rituximab-^111In*DOTA was evaluated against different controls in a murine model of disseminated lymphoma (33) using the GFP1/FFLuc1 Daudi cell line. The tumor was introduced by injecting 5 million cells into each of the female C.B.-17 severe combined immunodeficiency (scid) mice (8- to 10-wk old; Taconic Farms) intravenously via the retroorbital sinus route. Tumor growth in mice was determined by BLI using a Xenogen IVIS Optical Imaging System (Xenogen Corp.). Imaging was performed on mice that received an intraperitoneal injection of 3 mg of D-Luciferin (Xenogen) per mouse. On day 28 after tumor infusion, the tumor-bearing mice were separated into 4 groups; an additional 2 groups of scid mice with no tumor were included as control. […]

Daudi (CD20+, specific) = conditions: reference (33); cited from earlier work

Row | Compound | stimulation of CD8+ T cells that cross react with the native sequence (CD8+ T cells) | immune response (WT-1 peptide specific CTL response in vivo) (CD8+ T cells) | also measured
1 | O=C(O)CCCC[C@@H]1SC[C@@H]2NC(=O)N[C@@H]21 [biotin] | – | – | inhibition of serum antibodies (serum antibodies): did not
2 | ALLPAVSSL [WTI-10] | unable | – | –
3 | AYLPAVSSL [WTI-10A] | stimulated CD8+ T cells that cross reacted with the native sequence | robust immune response | –
4 | CMTWNQMNL [WTI-235] | unable | – | ability to kill tumor expressing cells or to produce a successful vaccine (tumor expressing cells): limited ability
5 | CMTWNQMNM [WTI-235A] | stimulated CD8+ T cells that cross reacted with the native sequence | robust immune response | heteroclitic response (peptide pulsed APCs): able to stimulate a heteroclitic response; killing of peptide pulsed targets by CD8+ T cells (peptide pulsed APCs): killed pulsed targets
6 | RYFPNAPYL [WTI-126A] | – | – | heteroclitic response (peptide pulsed APCs): able to stimulate a heteroclitic response; killing of peptide pulsed targets by CD8+ T cells (peptide pulsed APCs): killed pulsed targets
7 | SCLESQPTI [WTI-136] | unable | – | –
8 | SYLESQPTI [WTI-136A] | stimulated CD8+ T cells that cross reacted with the native sequence | robust immune response | –
9 | [111In]Rituximab: ^111In-labeled Rituximab targeting antibody, positive control | – | – | femur % ID/g (GFP1/FFLuc1 Daudi tumor): 11.4±3.32 % ID/g; immunoreactive fraction measured previously (Daudi (CD20+, specific)): 42%±17%
